Measured values taken from ChEMBL document CHEMBL5291721, “A preclinical secondary pharmacology resource illuminates target-adverse drug reaction associations of marketed drugs” (Nat Commun, 2023).

Assays:
[1] = target: Adenosine receptor A2a (Homo sapiens, UniProt P29274)
[2] = target: T1, B2 bradykinin receptor (Homo sapiens, UniProt P30411)
T1 sequence (P30411 whole entry): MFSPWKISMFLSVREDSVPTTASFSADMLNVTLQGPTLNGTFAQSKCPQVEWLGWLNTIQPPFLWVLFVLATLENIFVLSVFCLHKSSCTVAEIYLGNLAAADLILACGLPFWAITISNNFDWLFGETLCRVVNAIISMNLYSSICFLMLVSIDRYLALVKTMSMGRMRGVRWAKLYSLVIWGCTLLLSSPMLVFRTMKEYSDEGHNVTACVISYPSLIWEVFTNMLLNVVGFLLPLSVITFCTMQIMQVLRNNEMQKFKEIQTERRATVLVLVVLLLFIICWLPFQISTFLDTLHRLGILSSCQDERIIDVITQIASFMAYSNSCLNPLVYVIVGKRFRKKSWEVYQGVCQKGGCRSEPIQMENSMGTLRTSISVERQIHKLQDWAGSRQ

[3] = target: T2, Gastrin/cholecystokinin type B receptor (Homo sapiens, UniProt P32239)
T2 sequence (P32239 whole entry): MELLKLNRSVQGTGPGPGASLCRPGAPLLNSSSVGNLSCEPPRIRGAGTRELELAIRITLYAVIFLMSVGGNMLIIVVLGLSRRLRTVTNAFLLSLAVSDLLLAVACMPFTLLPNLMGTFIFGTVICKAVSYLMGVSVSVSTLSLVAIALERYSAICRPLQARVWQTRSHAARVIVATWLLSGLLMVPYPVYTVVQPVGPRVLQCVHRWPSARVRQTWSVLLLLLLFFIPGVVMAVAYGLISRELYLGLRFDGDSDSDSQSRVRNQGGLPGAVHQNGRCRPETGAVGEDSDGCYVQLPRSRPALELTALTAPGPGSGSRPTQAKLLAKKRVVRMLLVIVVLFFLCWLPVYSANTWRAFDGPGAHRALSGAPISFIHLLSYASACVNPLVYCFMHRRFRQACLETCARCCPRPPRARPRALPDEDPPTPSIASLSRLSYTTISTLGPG

[4] = target: Cannabinoid receptor 1 (Homo sapiens, UniProt P21554); type: functional, cell-based
[5] = target: Gamma-aminobutyric acid receptor subunit alpha-1 (Rattus norvegicus, UniProt P62813); type: functional
[6] = target: T3, 5-hydroxytryptamine receptor 1A (Homo sapiens, UniProt P08908); type: functional, cell-based
T3 sequence (P08908 whole entry): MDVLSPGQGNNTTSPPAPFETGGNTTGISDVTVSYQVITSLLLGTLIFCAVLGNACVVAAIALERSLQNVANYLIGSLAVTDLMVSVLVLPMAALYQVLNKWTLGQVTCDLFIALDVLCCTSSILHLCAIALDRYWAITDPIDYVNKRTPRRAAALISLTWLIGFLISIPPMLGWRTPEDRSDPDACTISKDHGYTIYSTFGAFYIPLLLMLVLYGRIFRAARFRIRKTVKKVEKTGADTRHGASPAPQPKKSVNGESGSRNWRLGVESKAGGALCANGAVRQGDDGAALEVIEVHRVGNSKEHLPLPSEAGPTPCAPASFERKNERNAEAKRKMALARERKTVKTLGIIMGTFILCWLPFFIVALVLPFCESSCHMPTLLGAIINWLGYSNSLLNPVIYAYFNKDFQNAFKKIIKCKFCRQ

[7] = target: 5-hydroxytryptamine receptor 2B (Homo sapiens, UniProt P41595); type: functional, cell-based
[8] = target: T4, Thromboxane A2 receptor (Homo sapiens, UniProt P21731)
T4 sequence (P21731 whole entry): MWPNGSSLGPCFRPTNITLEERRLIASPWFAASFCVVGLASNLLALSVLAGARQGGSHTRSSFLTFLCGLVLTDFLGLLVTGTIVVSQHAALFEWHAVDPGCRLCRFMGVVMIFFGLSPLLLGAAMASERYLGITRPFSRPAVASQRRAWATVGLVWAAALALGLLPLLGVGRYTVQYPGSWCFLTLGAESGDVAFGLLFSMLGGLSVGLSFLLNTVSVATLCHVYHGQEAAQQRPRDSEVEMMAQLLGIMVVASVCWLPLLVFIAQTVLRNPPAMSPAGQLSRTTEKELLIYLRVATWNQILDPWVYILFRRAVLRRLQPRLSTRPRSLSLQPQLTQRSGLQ

[9] = target: T5, Alpha-1A adrenergic receptor (Homo sapiens, UniProt P35348)
T5 sequence (P35348 whole entry): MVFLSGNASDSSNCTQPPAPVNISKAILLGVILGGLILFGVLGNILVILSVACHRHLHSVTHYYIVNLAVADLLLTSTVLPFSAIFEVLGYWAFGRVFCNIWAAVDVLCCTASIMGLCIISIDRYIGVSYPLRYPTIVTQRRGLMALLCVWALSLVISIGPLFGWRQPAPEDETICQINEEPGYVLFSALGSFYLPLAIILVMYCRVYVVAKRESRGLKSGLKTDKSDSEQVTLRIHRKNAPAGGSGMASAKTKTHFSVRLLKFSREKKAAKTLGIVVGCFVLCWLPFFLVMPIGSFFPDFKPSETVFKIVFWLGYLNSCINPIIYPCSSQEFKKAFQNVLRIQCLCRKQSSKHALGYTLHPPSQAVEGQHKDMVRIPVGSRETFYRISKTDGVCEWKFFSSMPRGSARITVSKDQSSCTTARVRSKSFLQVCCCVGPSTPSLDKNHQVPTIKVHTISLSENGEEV

Measured: AC50
Note: assay procedure not described here.

5-hydroxytryptamine receptor 2B, sequence (P41595 whole entry): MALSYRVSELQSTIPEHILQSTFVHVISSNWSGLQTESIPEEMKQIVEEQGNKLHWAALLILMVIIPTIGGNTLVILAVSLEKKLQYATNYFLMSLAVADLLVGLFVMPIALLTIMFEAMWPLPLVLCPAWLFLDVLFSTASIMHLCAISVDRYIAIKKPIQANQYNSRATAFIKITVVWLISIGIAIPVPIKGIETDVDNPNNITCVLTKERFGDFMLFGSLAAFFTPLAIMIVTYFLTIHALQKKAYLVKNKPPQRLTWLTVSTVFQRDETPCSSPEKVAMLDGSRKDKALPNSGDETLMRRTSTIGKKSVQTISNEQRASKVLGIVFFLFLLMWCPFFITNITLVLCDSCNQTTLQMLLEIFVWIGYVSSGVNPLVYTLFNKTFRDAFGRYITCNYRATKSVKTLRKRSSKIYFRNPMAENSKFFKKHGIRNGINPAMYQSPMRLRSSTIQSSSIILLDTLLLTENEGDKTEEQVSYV
Cannabinoid receptor 1, sequence (P21554 whole entry): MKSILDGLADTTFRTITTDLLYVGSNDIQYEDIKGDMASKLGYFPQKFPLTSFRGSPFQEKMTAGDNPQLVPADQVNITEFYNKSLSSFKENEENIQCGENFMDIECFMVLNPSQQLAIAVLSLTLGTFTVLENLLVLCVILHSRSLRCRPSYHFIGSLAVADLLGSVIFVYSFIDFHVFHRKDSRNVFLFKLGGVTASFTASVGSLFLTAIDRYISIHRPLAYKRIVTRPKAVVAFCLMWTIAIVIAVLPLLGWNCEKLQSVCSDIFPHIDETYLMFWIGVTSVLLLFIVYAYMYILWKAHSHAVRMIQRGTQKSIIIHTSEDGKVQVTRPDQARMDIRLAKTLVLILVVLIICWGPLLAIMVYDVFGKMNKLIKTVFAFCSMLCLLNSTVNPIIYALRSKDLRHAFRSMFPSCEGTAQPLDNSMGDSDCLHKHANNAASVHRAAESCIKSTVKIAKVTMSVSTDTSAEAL
Gamma-aminobutyric acid receptor subunit alpha-1, sequence (P62813 whole entry): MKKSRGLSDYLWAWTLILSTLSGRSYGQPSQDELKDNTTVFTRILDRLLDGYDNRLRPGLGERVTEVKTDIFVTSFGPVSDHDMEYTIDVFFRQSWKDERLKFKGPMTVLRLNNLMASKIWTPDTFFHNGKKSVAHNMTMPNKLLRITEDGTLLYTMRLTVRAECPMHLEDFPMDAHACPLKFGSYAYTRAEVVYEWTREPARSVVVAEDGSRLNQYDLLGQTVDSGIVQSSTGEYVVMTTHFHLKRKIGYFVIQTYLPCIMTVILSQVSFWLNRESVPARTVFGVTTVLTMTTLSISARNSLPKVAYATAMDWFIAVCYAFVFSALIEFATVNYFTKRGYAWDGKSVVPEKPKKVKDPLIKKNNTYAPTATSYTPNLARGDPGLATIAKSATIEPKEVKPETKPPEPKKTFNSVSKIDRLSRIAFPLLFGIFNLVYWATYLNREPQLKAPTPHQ
Adenosine receptor A2a, sequence (P29274 whole entry): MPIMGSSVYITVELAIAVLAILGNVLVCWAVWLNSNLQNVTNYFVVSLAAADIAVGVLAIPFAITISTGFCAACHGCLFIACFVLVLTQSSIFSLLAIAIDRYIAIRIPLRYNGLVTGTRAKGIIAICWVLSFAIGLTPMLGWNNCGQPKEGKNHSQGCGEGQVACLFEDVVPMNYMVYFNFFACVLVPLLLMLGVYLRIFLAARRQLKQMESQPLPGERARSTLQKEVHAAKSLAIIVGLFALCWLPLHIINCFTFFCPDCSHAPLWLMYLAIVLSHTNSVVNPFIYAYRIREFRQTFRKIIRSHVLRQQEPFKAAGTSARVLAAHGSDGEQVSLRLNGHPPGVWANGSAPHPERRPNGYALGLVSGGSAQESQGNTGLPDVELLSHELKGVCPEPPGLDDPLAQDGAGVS

C[N+](C)(C)CCOP(=O)([O-])OC[C@H](O)CO
not listed: [9]
> 30 µM: all other assays above

CN(C)Cc1nnc2n1-c1ccc(Cl)cc1C(c1ccccc1)=NC2 [ADINAZOLAM]
0.19 µM: [5]
not listed: [3] | [4]
> 10 µM: all other assays above

CN(C)C/C=C/C(=O)Nc1cc2c(Nc3ccc(F)c(Cl)c3)ncnc2cc1O[C@H]1CCOC1 [AFATINIB]
not listed: [8] | [9]
> 30 µM: all other assays above

CCC1(c2ccc(N)cc2)CCC(=O)NC1=O (stereo not given) [AMINOGLUTETHIMIDE]
not listed: [9]
> 30 µM: all other assays above

CC1=C(C(=O)OC(C)C)C(c2cccc([N+](=O)[O-])c2)C(C(=O)OC2CN(C(c3ccccc3)c3ccccc3)C2)=C(N)N1 (stereo not given) [AZELNIDIPINE]
> 10 µM: [2]
not listed: [9]
> 30 µM: all other assays above

O=C(/C=C/c1cccc(S(=O)(=O)Nc2ccccc2)c1)NO [BELINOSTAT]
> 10 µM: [9] | [5]
> 30 µM: [1] | [2] | [3] | [8]

CC(Cc1cccc(C(F)(F)F)c1)NCCOC(=O)c1ccccc1 (stereo not given) [BENFLUOREX]
> 30 µM: [1] | [2] | [3] | [7] | [8]
4.3 µM: [6]

CCOC(=O)c1ccc(N)cc1 [BENZOCAINE]
not listed: [3] | [4]
> 10 µM: all other assays above

NC[C@H]1CC[C@H](C(=O)Oc2ccc(CCC(=O)O)cc2)CC1 [CETRAXATE]
> 30 µM: [4] | [5] | [6]

CC(=O)O[C@]1(C(C)=O)CC[C@H]2[C@@H]3C=C(Cl)C4=CC(=O)[C@@H]5C[C@@H]5[C@]4(C)[C@H]3CC[C@@]21C [CYPROTERONE ACETATE]
> 30 µM: [1] | [2] | [3] | [8]
> 10 µM: [9] | [5]

C/C=C(/C(=C/C)c1ccc(O)cc1)c1ccc(O)cc1 [DIENESTROL]
> 30 µM: [1]
not listed: [3] | [4]
> 10 µM: all other assays above

CN[C@]1(c2ccccc2Cl)CCCCC1=O [ESKETAMINE]
not listed: [4] | [9]
> 30 µM: all other assays above
